{"source": "patent US20160354781A1", "about": "“MICROFLUIDIC PLATE FOR SAMPLE PROCESSING” (National Taiwan University, priority 2015, published 2016)", "key": {"MDA-MB-231 cells [1]": {"test_system": "MDA-MB-231 cells", "experiment": "Anticancer drug screening in 96-well plates (control), MTT assay", "format": "cell-based", "conditions": "Homo sapiens, 96-well control, 24 hour drug treatment, read-out: IC50 (concentration yielding a 50% decrease in normalized percentage cell viability)", "protocol": "The anticancer drug screening of cell lines was conducted with MGP and on 96-well plates as control. Two typical breast cancer lines, MCF-7 (ATCC, HTB-22) and MDA-MB-231 (ATCC, HTB-26) were used. The reason to choose the two types of cancer cell lines was that MCF-7 stood for typical luminal type cancer cells while MDA-MB-231 stood for normal-like typically. By using the two cell lines in drug response assay on the microfluidic device, we could examine whether MGP was workable to both the two types of cancer cells since primary samples may have diversely cancer cell types. Anticancer drug screening using cell lines could confirm the feasibility of applying MGP to individualized chemosensitivity assay on primary patient samples. In addition, cell lines on MGP could help optimize the operation of drug response assay beforehand, which would reduce the difficulties when dealing with primary samples. […]\nAnticancer drug screening was also conducted using conventional 96-well plates as controls. […] The quantity of cells in single well was determined to coordinate the same cell-to-substrate ratio as in MGP (1000 cells/1.766 mm2). […] Finally, a plate reader (MQX 200, BioTek) was used to determine the absorbance of the DMSO at 570 nm, which was used to determine the number of living cells. […]"}, "MDA-MB-231 cells [2]": {"test_system": "MDA-MB-231 cells", "experiment": "Anticancer drug screening in the Micro-Gap Plate (MGP), viability by tri-fluorescent staining", "format": "cell-based", "conditions": "Homo sapiens, 24 hour drug treatment, viability normalized against untreated cells, read-out: IC50 (concentration yielding a 50% decrease in normalized percentage cell viability)", "protocol": "The anticancer drug screening of cell lines was conducted with MGP and on 96-well plates as control. Two typical breast cancer lines, MCF-7 (ATCC, HTB-22) and MDA-MB-231 (ATCC, HTB-26) were used. The reason to choose the two types of cancer cell lines was that MCF-7 stood for typical luminal type cancer cells while MDA-MB-231 stood for normal-like typically. By using the two cell lines in drug response assay on the microfluidic device, we could examine whether MGP was workable to both the two types of cancer cells since primary samples may have diversely cancer cell types. Anticancer drug screening using cell lines could confirm the feasibility of applying MGP to individualized chemosensitivity assay on primary patient samples. In addition, cell lines on MGP could help optimize the operation of drug response assay beforehand, which would reduce the difficulties when dealing with primary samples. Moreover, the method of viability assessment could be examined on MGP using cell lines since fluorescent images was one of most important factors to determine the viability of cancer cells after drug treatment. […]\nPrimary cells were suspended (16.7 cells/0.1 μL) in culture medium (the formula of culture medium is stated in the previous section). […] The volume of cell suspension in each unit was determined on the basis of the final density of cell suspension as stated in previous section. […]"}}}
{"smiles": "CC(=O)O[C@@]12CO[C@@H]1C[C@H](O)[C@@]1(C)C(=O)[C@H](O)C3=C(C)[C@@H](OC(=O)[C@H](O)[C@@H](NC(=O)OC(C)(C)C)c4ccccc4)C[C@@](O)([C@@H](OC(=O)c4ccccc4)[C@H]21)C3(C)C", "note": "[docetaxel]", "values": [{"measurement": "IC50", "setting": "MDA-MB-231 cells [1]", "value": 25.4, "unit": "µg/mL"}, {"measurement": "IC50", "setting": "MDA-MB-231 cells [2]", "value": 23.4, "unit": "µg/mL"}]}
